In ChEMBL document CHEMBL4346765, “Design, synthesis and biological evaluation of novel dithiocarbamate-substituted diphenylaminopyrimidine derivatives as BTK inhibitors” (Bioorg Med Chem, 2019):
Active and inactive are the calls of the source. The rule behind the calls is not given here.

Columns and labels:
[1] = target: T1, Tyrosine-protein kinase BTK (Homo sapiens, UniProt Q06187); experiment: Inhibition of human recombinant full length BTK expressed in baculovirus in Sf9 insect cells using Poly (4:1 Glu, Tyr) as substrate incubated for 1 hr by ADP-Glo assay
T1 sequence (Q06187 whole entry): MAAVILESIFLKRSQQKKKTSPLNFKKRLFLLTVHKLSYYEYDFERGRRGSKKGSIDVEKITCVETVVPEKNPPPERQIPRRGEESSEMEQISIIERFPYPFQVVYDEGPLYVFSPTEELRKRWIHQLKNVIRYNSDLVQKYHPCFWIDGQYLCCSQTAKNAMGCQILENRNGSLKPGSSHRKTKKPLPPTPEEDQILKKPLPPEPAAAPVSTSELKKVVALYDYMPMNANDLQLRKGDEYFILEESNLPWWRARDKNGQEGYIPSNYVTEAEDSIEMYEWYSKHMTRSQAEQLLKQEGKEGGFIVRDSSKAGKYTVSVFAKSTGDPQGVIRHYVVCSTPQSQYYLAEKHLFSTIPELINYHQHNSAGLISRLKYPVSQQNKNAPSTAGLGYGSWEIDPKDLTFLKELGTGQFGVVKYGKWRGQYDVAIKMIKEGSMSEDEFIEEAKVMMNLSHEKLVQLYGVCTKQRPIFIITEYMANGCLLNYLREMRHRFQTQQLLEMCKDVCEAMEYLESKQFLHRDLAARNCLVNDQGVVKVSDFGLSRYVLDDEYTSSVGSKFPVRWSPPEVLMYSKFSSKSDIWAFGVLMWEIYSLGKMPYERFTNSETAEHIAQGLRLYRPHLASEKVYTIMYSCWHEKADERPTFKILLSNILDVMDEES

Ramos [2] = experiment: Antiproliferative activity against human Ramos cells assessed as reduction in cell growth incubated for 48 hrs by MTS assay
Raji = experiment: Antiproliferative activity against human Raji cells assessed as reduction in cell growth incubated for 48 hrs by MTS assay
[3] = target: T1, Tyrosine-protein kinase BTK; experiment: Inhibition of BTK in anti-IgM-stimulated human Ramos cells assessed as reduction in PLCgamma2 phosphorylation at Y1217 residues at 10 uM incubated for 4 hrs followed by anti-IgM stimulation for 30 mins by Western blot analysis; type: cell-based
K562 = experiment: Cytotoxicity against human K562 cells assessed as reduction in cell viability at 0.1 to 40 uM incubated for 48 hrs by MTS assay; type: functional, cell-based; settings: K562, 48 h
KARPAS-299 = experiment: Cytotoxicity against human KARPAS299 cells assessed as reduction in cell viability at 0.1 to 40 uM incubated for 48 hrs by MTS assay; type: functional, cell-based; settings: KARPAS-299, 48 h
Jurkat = experiment: Cytotoxicity against human Jurkat cells assessed as reduction in cell viability at 0.1 to 40 uM incubated for 48 hrs by MTS assay; type: functional, cell-based
MDA-MB-231 = experiment: Cytotoxicity against human MDA-MB-231 cells assessed as reduction in cell viability at 0.1 to 40 uM incubated for 48 hrs by MTS assay; type: functional, cell-based; settings: MDA-MB-231, 48 h
MCF7 = experiment: Cytotoxicity against human MCF7 cells assessed as reduction in cell viability at 0.1 to 40 uM incubated for 48 hrs by MTS assay; type: functional, cell-based; settings: MCF7, 48 h
HepG2 = experiment: Cytotoxicity against human HepG2 cells assessed as reduction in cell viability at 0.1 to 40 uM incubated for 48 hrs by MTS assay; type: functional, cell-based; settings: HepG2, 48 h
786-0 = experiment: Cytotoxicity against human 786-O cells assessed as reduction in cell viability at 0.1 to 40 uM incubated for 48 hrs by MTS assay; type: functional, cell-based; settings: 786-0, 48 h
HeLa = experiment: Cytotoxicity against human HeLa cells assessed as reduction in cell viability at 0.1 to 40 uM incubated for 48 hrs by MTS assay; type: functional, cell-based
PC-3 = experiment: Cytotoxicity against human PC3 cells assessed as reduction in cell viability at 0.1 to 40 uM incubated for 48 hrs by MTS assay; type: functional, cell-based; settings: PC-3, 48 h
HT-29 = experiment: Cytotoxicity against human HT-29 cells assessed as reduction in cell viability at 0.1 to 40 uM incubated for 48 hrs by MTS assay; type: functional, cell-based; settings: HT-29, 48 h
A549 = experiment: Cytotoxicity against human A549 cells assessed as reduction in cell viability at 0.1 to 40 uM incubated for 48 hrs by MTS assay; type: functional, cell-based; settings: A549, 48 h
NCI-H1299 = experiment: Cytotoxicity against human H1299 cells assessed as reduction in cell viability at 0.1 to 40 uM incubated for 48 hrs by MTS assay; type: functional, cell-based; settings: NCI-H1299, 48 h
NCI-H3122 = experiment: Cytotoxicity against human NCI-H3122 cells assessed as reduction in cell viability at 0.1 to 40 uM incubated for 48 hrs by MTS assay; type: functional, cell-based; settings: NCI-H3122, 48 h
HEF = experiment: Cytotoxicity against human HEF cells assessed as reduction in cell viability at 0.1 to 40 uM incubated for 48 hrs by MTS assay; type: cell-based
[4] = Cytotoxicity against human HELF cells assessed as reduction in cell viability at 0.1 to 40 uM incubated for 48 hrs by MTS assay; type: cell-based
BJ = experiment: Cytotoxicity against human BJ cells assessed as reduction in cell viability at 0.1 to 40 uM incubated for 48 hrs by MTS assay; type: cell-based
MCF-10A = experiment: Cytotoxicity against human MCF10A cells assessed as reduction in cell viability at 0.1 to 40 uM incubated for 48 hrs by MTS assay; type: cell-based
Ramos [5] = experiment: Antitumor activity in human Ramos cells xenografted in NOD/SCID mouse assessed as reduction in tumor growth at 30 mg/kg/day, ip administered daily for 14 days; type: functional; settings: 336 h, read-out: TGI

Row | SMILES | IC50 [1] [nM] | IC50 (Ramos [2]) [nM] | IC50 (Raji) [nM] | further results
1 | C=CC(=O)Nc1cccc(Nc2nc(Nc3ccc(OCCSC(=S)N4CCN(C(C)=O)CC4)cc3)ncc2F)c1 | 80.3 | 2760 | 3530 | 
2 | CCC(=O)Nc1cccc(Nc2nc(Nc3ccc(OCCSC(=S)NCc4cccnc4)cc3)ncc2F)c1 | > 500 | > 40000 | > 40000 | inhibition [3]: inactive
3 | C=CC(=O)Nc1cccc(Nc2nc(Nc3ccc(OCCSC(=S)NC(C)C)cc3)ncc2F)c1 | 98.2 | 9310 | 9580 | 
4 | C=CCNC(=S)SCCOc1ccc(Nc2ncc(F)c(Nc3cccc(NC(=O)C=C)c3)n2)cc1 | 91.7 | 4320 | 13300 | 
5 | C=CC(=O)Nc1cccc(Nc2nc(Nc3ccc(NC(=O)CSC(=S)NCc4cccnc4)cc3)ncc2F)c1 | 18.4 | 1130 | 310 | 
6 | C=CC(=O)Nc1cccc(Nc2nc(Nc3ccc(OCCSC(=S)NCc4ccc(OC)cc4)cc3)ncc2F)c1 | 5.68 | 3220 | 1280 | 
7 | C=CC(=O)Nc1cccc(Nc2nc(Nc3ccc(OCCSC(=S)NCc4ccccc4)cc3)ncc2F)c1 | 10.8 | 1380 | 2220 | 
8 | C=CC(=O)Nc1cccc(Nc2nc(Nc3ccc(OCCSC(=S)NCc4cccc(F)c4)cc3)ncc2F)c1 | 6.9 | 1240 | 1150 | 
9 | C=CC(=O)N1CCC[C@@H](n2nc(-c3ccc(Oc4ccccc4)cc3)c3c(N)ncnc32)C1 [IBRUTINIB] |  | 1880 | 17700 | 
10 | C=CC(=O)Nc1cccc(Nc2nc(Nc3ccc(OCCSC(=S)N4CCN(C(C)C)CC4)cc3)ncc2F)c1 | 56.9 | 1020 | 3930 | 
11 | C=CC(=O)Nc1cccc(Nc2nc(Nc3ccc(OCCSC(=S)NCc4cnccn4)cc3)ncc2F)c1 | 8.49 | 4420 | 6570 | 
12 | C=CC(=O)Nc1cccc(Nc2nc(Nc3ccc(OCCSC(=S)NCc4cc(OC)c(OC)c(OC)c4)cc3)ncc2F)c1 | 48.6 | 2250 | 561 | 
13 | C=CC(=O)Nc1cccc(Nc2nc(Nc3ccc(OCCSC(=S)N4CCN(C(=O)OC(C)(C)C)CC4)cc3)ncc2F)c1 | 264 | 14500 | > 40000 | 
14 | C=CC(=O)Nc1cccc(Nc2nc(Nc3ccc(OCCCCSC(=S)N(C)C)cc3)ncc2F)c1 | 35.4 | 15400 | 10200 | 
15 | C=CC(=O)Nc1cccc(Nc2nc(Nc3ccc(OCCSC(=S)N4CCc5ccccc5C4)cc3)ncc2F)c1 | > 500 | > 40000 | > 40000 | 
16 | C=CC(=O)Nc1cccc(Nc2nc(Nc3ccc(OCCSC(=S)NC)cc3)ncc2F)c1 | 8.21 | 5940 | 7170 | 
17 | C=CC(=O)Nc1cccc(Nc2nc(Nc3ccc(OCCSC(=S)NCc4ccncc4)cc3)ncc2F)c1 | 7.36 | 574 | 501 | 
18 | C=CC(=O)Nc1cccc(Nc2nc(Nc3ccc(OCCSC(=S)N4CCCC4)cc3)ncc2F)c1 | 154 | 2970 | 15300 | 
19 | C=CC(=O)Nc1cccc(Nc2nc(Nc3ccc(OCCSC(=S)N4CCOCC4)cc3)ncc2F)c1 | 29.9 | 2870 | 4240 | 
20 | C=CC(=O)Nc1cccc(Nc2nc(Nc3ccc(NC(=O)CCSC(=S)NCc4cccnc4)cc3)ncc2F)c1 | 23.7 | 1220 | 340 | 
21 | C=CC(=O)Nc1cccc(Nc2nc(Nc3ccc(OCCCSC(=S)N(C)C)cc3)ncc2F)c1 | 13.9 | 4360 | 4980 | 

Row | SMILES | IC50 [1] [nM] | IC50 (Ramos [2]) [nM] | IC50 (Raji) [nM] | further results
22 | C=CC(=O)Nc1cccc(Nc2nc(Nc3ccc(OCCOC)cc3)ncc2F)c1 [SPEBRUTINIB] |  | 5440 | 21600 | IC50 (K562): 12600 nM; IC50 (KARPAS-299): 20300 nM; IC50 (Jurkat): 6700 nM; IC50 (MDA-MB-231): > 40000 nM; IC50 (MCF7): 29000 nM; IC50 (HepG2): 33500 nM; IC50 (786-0): 14900 nM; IC50 (HeLa): 17400 nM; IC50 (PC-3): 22200 nM; IC50 (HT-29): 18900 nM; IC50 (A549): 1980 nM; IC50 (NCI-H1299): 38500 nM; IC50 (NCI-H3122): 32500 nM; IC50 (HEF): 22600 nM; IC50 [4]: 16000 nM; IC50 (BJ): 27600 nM; IC50 (MCF-10A): 4360 nM; inhibition in vivo at 30 mg/kg/day (Ramos [5]): 28.9%
23 | C=CC(=O)Nc1cccc(Nc2nc(Nc3ccc(OCCSC(=S)N(CCCC)CCCC)cc3)ncc2F)c1 | 125 | 9210 | 20900 | 
24 | C=CC(=O)Nc1cccc(Nc2nc(Nc3ccc(OCCSC(=S)N(C)Cc4cccnc4)cc3)ncc2F)c1 | 30.7 | 2730 | 4840 | 
25 | C=CC(=O)Nc1cccc(Nc2nc(Nc3ccc(OCCCSC(=S)NCc4cccnc4)cc3)ncc2F)c1 | 2.39 | 1420 | 1020 | 
26 | C=CC(=O)Nc1cccc(Nc2nc(Nc3ccc(OCCSC(=S)NC4CCCCC4)cc3)ncc2F)c1 | 115 | 9460 | 9750 | 
27 | C=CC(=O)Nc1cccc(Nc2nc(Nc3ccc(OCCCCSC(=S)N4CCN(C(C)C)CC4)cc3)ncc2F)c1 | 131 | 2920 | 4450 | 
28 | C=CC(=O)Nc1cccc(Nc2nc(Nc3ccc(OCCSC(=S)N4CCN(CCO)CC4)cc3)ncc2F)c1 | 68.3 | 3740 | 7760 | 
29 | C=CC(=O)Nc1cccc(Nc2nc(Nc3ccc(OCCSC(=S)N4CCN(c5ccccc5)CC4)cc3)ncc2F)c1 | 386 | 20600 | 15000 | 
30 | C=CC(=O)Nc1cccc(Nc2nc(Nc3ccc(OCCCCSC(=S)NCc4cccnc4)cc3)ncc2F)c1 | 16.5 | 1490 | 1050 | 
31 | C=CC(=O)Nc1cccc(Nc2nc(Nc3ccc(OCCSC(=S)N4CC(C)OC(C)C4)cc3)ncc2F)c1 (stereo not drawn) | 27.1 | 2290 | 6130 | 
32 | C=CC(=O)Nc1cccc(Nc2nc(Nc3ccc(OCCSC(=S)N(CCC)CCC)cc3)ncc2F)c1 | 241 | > 40000 | > 40000 | 
33 | C=CC(=O)Nc1cccc(Nc2nc(Nc3ccc(OCCSC(=S)NCc4ccccn4)cc3)ncc2F)c1 | 18.5 | 2670 | 10300 | 
34 | C=CC(=O)Nc1cccc(Nc2nc(Nc3ccc(OCCSC(=S)N(C)C)cc3)ncc2F)c1 | 1.44 | 9530 | 13800 | 
35 | C=CC(=O)Nc1cccc(Nc2nc(Nc3ccc(OCCSC(=S)N(CC)CC)cc3)ncc2F)c1 | 23.3 | 3540 | 13700 | 
36 | C=CC(=O)Nc1cccc(Nc2nc(Nc3ccc(OCCSC(=S)NCc4ccc(C#N)cc4)cc3)ncc2F)c1 | 8.58 | 1030 | 1220 | 
37 | C=CC(=O)Nc1cccc(Nc2nc(Nc3ccc(OCCSC(=S)N4CCN(C)CC4)cc3)ncc2F)c1 | 35.6 | 1900 | 3900 | 
38 | C=CC(=O)Nc1cccc(Nc2nc(Nc3ccc(OCCSC(=S)NC4CC4)cc3)ncc2F)c1 | 2.5 | 5090 | 6290 | 
39 | C=CC(=O)Nc1cccc(Nc2nc(Nc3ccc(OCCCSC(=S)N4CCN(C(C)C)CC4)cc3)ncc2F)c1 | 63.2 | 1360 | 8250 | 
40 | C=CC(=O)Nc1cccc(Nc2nc(Nc3ccc(OCCSC(=S)N4CCN(Cc5ccccc5)CC4)cc3)ncc2F)c1 | 283 | 2070 | > 40000 | 
41 | C=CC(=O)Nc1cccc(Nc2nc(Nc3ccc(OCCSC(=S)N4CCCCC4)cc3)ncc2F)c1 | 83.6 | 7650 | 13400 | 
42 | C=CC(=O)Nc1cccc(Nc2nc(Nc3ccc(OCCSC(=S)NCC)cc3)ncc2F)c1 | 15 | 3440 | 8640 | 
